“Also recorded” adds a separate entry of the source.
Target: KCNQ2/KCNQ3-W265L (Homo sapiens, UniProt O43525+O43526, W265L)
Experiment: TEVC of KCNQ2/KCNQ3-W265L channels
Type: cell-based
Excerpt: cRNA transcripts encoding human KCNQ2, KCNQ3, KCNQ4, KCNQ5 (Kv7.2-Kv7.5) were generated by in vitro transcription using the T7 polymerase mMessage mMachine kit (Thermo Fisher Scientific), after vector linearization, from cDNA sub-cloned into plasmids incorporating Xenopus laevis β-globin 5′ and 3′ UTRs flanking the coding region to enhance translation and cRNA stability. cRNA was quantified by spectrophotometry. Mutant KCNQ2 and KCNQ3 cDNAs were generated with site-directed mutagenesis using a QuikChange kit according to the manufacturer's protocol (Stratagene, San Diego, Calif.) and corresponding cRNAs prepared as above. Defolliculated stage V and VI Xenopus laevis oocytes (Ecocyte Bioscience, Austin, Tex.) were injected with KCNQ channel α subunit cRNAs (5-10 ng). The oocytes were incubated at 16° C. in Barth's saline solution (Ecocyte) containing penicillin and streptomycin, with daily washing, for 2-5 days prior to two-electrode voltage-clamp (TEVC) recording.
TEVC recording was performed at room temperature using a OC-725C amplifier (Warner Instruments, Hamden, Conn.) and pClamp8 software (Molecular Devices, Sunnyvale, Calif.) 2-5 days after cRNA injection as described in the section above. The oocytes were placed in a small-volume oocyte bath (Warner) and viewed with a dissection microscope. Unless otherwise stated, chemicals were sourced from Sigma. Bath solution was (in mM): 96 NaCl, 4 KCl, 1 MgCl2, 1 CaCl2, 10 HEPES (pH 7.6). […] The drugs were introduced into the recording bath by gravity perfusion at a constant flow of 1 ml per minute for 3 minutes prior to recording. Pipettes were of 1-2 MΩ resistance when filled with 3 M KCl. Currents were recorded in response to pulses between −80 mV and +40 mV at 20 mV intervals, or a single pulse to +40 mV, from a holding potential of −80 mV, to yield current-voltage relationships, current magnitude, and for quantifying activation rate. Deactivation was recorded at −80 mV after a single pulse to +40 mV, from a holding potential of −80 mV. Electrophysiology data analysis was performed with Clampfit (Molecular Devices) and Graphpad Prism software (GraphPad, San Diego, Calif., USA); values are stated as mean±SD. Raw or normalized tail currents were plotted versus prepulse voltage and fitted with a single Boltzmann function:
As previously described (12), we generated cRNA transcripts encoding human KCNA1, KCNE1, KCNE2, KCNE3, KCNQ1, KCNQ2, KCNQ3, KCNQ4 or KCNQ5 by in vitro transcription using the T7 polymerase mMessage mMachine kit (Thermo Fisher Scientific), after vector linearization, from cDNA sub-cloned into plasmids incorporating Xenopus laevis β-globin 5′ and 3′ UTRs flanking the coding region to enhance translation and cRNA stability. We quantified cRNA by spectrophotometry. […]

CS(=O)(=O)N(CC(=O)O)c1cccc(F)c1 [3FMSG]
effect on KCNQ2/KCNQ3-W265L (in words): dependent on KCNQ3-W265; also recorded: eliminated effects of 3FMSG

NCC1(CC(=O)O)CCCCC1 [gabapentin, reference compound]
effect on KCNQ2/KCNQ3-W265L (in words): insensitive

CCCCCCCCC/C=C/C=O [(E)-2-dodecenal]
maximal shift in ΔV0.5activation ((E)-2-dodecenal): −9 mV
EC50 (ΔV0.5activation, read-out: EC50 of (E)-2-dodecenal): 270 ± 20 nM

— patent publication US12268683B2, “Compounds and methods for synergistic activation of M channels” (THE REGENTS OF THE UNIVERSITY OF CALIFORNIA, priority 2018, dated 2025)
